# Reference: patent publication US7361687B2, “Arylsulphonamide derivatives and methods of preparing” (Laboratoires Fournier SA, priority 2002, dated 2008)
# System: formalin-induced pain response in mice
# Test: formalin-induced pain response test in mice
# Format: in vivo
# Settings: formalin 0.92% in hind paw, licking time 15 to 30 min after injection, dose 1 mg/kg i.v.
# Procedure: The compounds of the present invention were evaluated for their analgesic properties in the formalin-induced pain response test in mice (Shibata, M., Ohkubo, T., Takahashi, H. & R. Inoki. Modified formalin test: characteristic biphasic pain response. Pain, 38, 347-352). To summarize, formalin (0.92% in saline solution) is injected into the hind paw and the paw licking time, which reflects pain intensity, is recorded from 0 to 5 min (1st phase) and from 15 to 30 min (2nd phase) after injection.
row,Molecule,% inhibition of the 2nd paw licking phase [%]
1,"N-[[4-(4,5-dihydro-1H-imidazol-2-yl)phenyl]methyl]-2-[2-[[(4-methoxy-2,6-dimethylphenyl)sulphonyl]methylamino]ethoxy]-N-methyl-acetamide, trifluoroacetate [Example 49]",40

# Same assay, conditions: formalin 0.92% in hind paw, licking time 15 to 30 min after injection, dose 10 mg/kg i.p.
row,Molecule,% inhibition of the 2nd paw licking phase [%]
1,"Cc1c(Cl)ccc(S(=O)(=O)N(CCCCC(=O)N(C)Cc2ccc(C3=NCCN3)cc2)CC(N)=O)c1Cl.O=C(O)C(F)(F)F [Example 19, 5-[(2-amino-2-oxoethyl)[(2,4-dichloro-3-methylphenyl)sulphonyl]-amino]-N-[[4-(4,5-dihydro-1H-imidazol-2-yl)phenyl]methyl]-N-methyl-pentanamide, trifluoroacetate]",42

# Same assay, conditions: formalin 0.92% in hind paw, licking time 15 to 30 min after injection, dose 100 mg/kg p.o.
row,Molecule,% inhibition of the 2nd paw licking phase [%]
1,"5-[[(2,3-dichlorophenyl)sulphonyl]methylamino]-N-[[4-(4,5-dihydro-1H-imidazol-2-yl)phenyl]methyl]-N-methyl-pentanamide, trifluoroacetate [Example 9]",60
2,"CN(Cc1ccc(C2=NCCN2)cc1)C(=O)CCCCN(C1CC1)S(=O)(=O)c1cccc(Cl)c1Cl.O=C(O)C(F)(F)F [Example 16, 5-[cyclopropyl[(2,3-dichlorophenyl)sulphonyl]amino]-N-[[4-(4,5-dihydro-1H-imidazol-2-yl)phenyl]methyl]-N-methyl-pentanamide, trifluoroacetate]",80

# System: not given
# Test: not given
# Settings: not given
row,Molecule,melting point [°C]
1,CN(Cc1ccc(C2=NCCN2)cc1)C(=O)/C=C/CN(C)S(=O)(=O)c1ccc(OC(F)(F)F)cc1Cl.O=C(O)C(F)(F)F,68
2,CN(Cc1ccc(C2=NCCN2)cc1)C(=O)/C=C/CN(C)S(=O)(=O)c1cccc2ccccc12.O=C(O)C(F)(F)F,77
3,CN(Cc1ccc(C2=NCCN2)cc1)C(=O)CCCCN(C1CC1)S(=O)(=O)c1ccccc1Cl.O=C(O)C(F)(F)F,55
4,CC(C)N(CCCCC(=O)N(C)Cc1ccc(C2=NCCN2)cc1)S(=O)(=O)c1c(Cl)cccc1Cl.O=C(O)C(F)(F)F,60
5,Cc1c(Cl)ccc(S(=O)(=O)N(CCCCC(=O)N(C)Cc2ccc(C3=NCCN3)cc2)CCC(N)=O)c1Cl.O=C(O)C(F)(F)F,85
6,CC(C)N(CCC(=O)N(C)Cc1ccc(C2=NCCN2)cc1)S(=O)(=O)c1cccc(Cl)c1Cl.O=C(O)C(F)(F)F,92
7,CC(C)N(CCC(=O)N(C)Cc1ccc(C2=NCCN2)cc1)S(=O)(=O)c1c(Cl)cccc1Cl.O=C(O)C(F)(F)F,75
8,CN(Cc1ccc(C2=NCCN2)cc1)C(=O)COCCN(C1CC1)S(=O)(=O)c1ccccc1Cl.O=C(O)C(F)(F)F,52
9,CN(Cc1ccc(C2=NCCN2)cc1)C(=O)COCCN(C1CC1)S(=O)(=O)c1cccc(Cl)c1Cl.O=C(O)C(F)(F)F,65
10,CN(Cc1ccc(C2=NCCN2)cc1)C(=O)COCCN(C1CC1)S(=O)(=O)c1c(Cl)cccc1Cl.O=C(O)C(F)(F)F,60
11,Cc1c(Cl)ccc(S(=O)(=O)N(CCOCC(=O)N(C)Cc2ccc(C3=NCCN3)cc2)CCc2ccccc2)c1Cl.O=C(O)C(F)(F)F,85
12,CN(Cc1ccc(C2=NCCN2)cc1)C(=O)CCN(C1CC1)S(=O)(=O)c1cccc(Cl)c1Cl.O=C(O)C(F)(F)F,80
13,CN(Cc1ccc(C2=NCCN2)cc1)C(=O)CCN(C1CC1)S(=O)(=O)c1c(Cl)cccc1Cl.O=C(O)C(F)(F)F,65
14,CN(Cc1ccc(C2=NCCN2)cc1)C(=O)CCN(CC(F)(F)F)S(=O)(=O)c1cccc(Cl)c1Cl.O=C(O)C(F)(F)F,88
15,CN(Cc1ccc(C2=NCCN2)cc1)C(=O)CCN(CC(F)(F)F)S(=O)(=O)c1c(Cl)cccc1Cl.O=C(O)C(F)(F)F,80
16,CN(Cc1ccc(C2=NCCN2)cc1)C(=O)/C=C/CN(C)S(=O)(=O)c1ccccc1C(F)(F)F.O=C(O)C(F)(F)F,50
17,Cc1c(Cl)ccc(S(=O)(=O)NC/C=C/C(=O)N(C)Cc2ccc(C3=NCCN3)cc2)c1Cl.O=C(O)C(F)(F)F,99
18,CN(Cc1ccc(C2=NCCN2)cc1)C(=O)COCCN(C)S(=O)(=O)c1ccccc1C(F)(F)F.O=C(O)C(F)(F)F,60
19,CN(Cc1ccc(C2=NCCN2)cc1)C(=O)COCCN(C)S(=O)(=O)c1c(Cl)cc(C(F)(F)F)cc1Cl.O=C(O)C(F)(F)F,60
20,CN(Cc1ccc(C2=NCCN2)cc1)C(=O)COCCN(C)S(=O)(=O)c1ccc(Cl)c(Cl)c1Cl.O=C(O)C(F)(F)F,70
21,CN(Cc1ccc(C2=NCCN2)cc1)C(=O)COCCN(C)S(=O)(=O)c1cccc2ccccc12.O=C(O)C(F)(F)F,66
22,CN(Cc1ccc(C2=NCCN2)cc1)C(=O)COCCN(C)S(=O)(=O)c1cccc(C(F)(F)F)c1.O=C(O)C(F)(F)F,60
23,"CN(Cc1ccc(C2=NCCN2)cc1)C(=O)CCCCN(C1CC1)S(=O)(=O)c1cccc(Cl)c1Cl.O=C(O)C(F)(F)F [Example 16, 5-[cyclopropyl[(2,3-dichlorophenyl)sulphonyl]amino]-N-[[4-(4,5-dihydro-1H-imidazol-2-yl)phenyl]methyl]-N-methyl-pentanamide, trifluoroacetate]",70
24,"Cc1c(Cl)ccc(S(=O)(=O)N(CCCCC(=O)N(C)Cc2ccc(C3=NCCN3)cc2)CC(N)=O)c1Cl.O=C(O)C(F)(F)F [Example 19, 5-[(2-amino-2-oxoethyl)[(2,4-dichloro-3-methylphenyl)sulphonyl]-amino]-N-[[4-(4,5-dihydro-1H-imidazol-2-yl)phenyl]methyl]-N-methyl-pentanamide, trifluoroacetate]",90
